Assay results published in patent publication US20260234140A1, “PYRIDOPYRIMIDINE DERIVATIVE AND USE THEREOF” (SUNSHINE LAKE PHARMA CO., LTD., priority 2023, published 2026).

Tested on: PD1/PD-L1 pathway
Assay: PD1/PD-L1 Blockade Bioassay, inhibition of the PD1/PD-L1 pathway at the cellular level (luciferase reporter, PD-1 Jukat T cells co-cultured with PD-L1 aAPC/CHO-K1 cells)
Type: cell-based
Details: T-cell; for EC50: PD-1 Jukat T cells + PD-L1 aAPC/CHO-K1 cells, 6 h co-culture, ONE-Glo luciferase readout; for Emax: maximum % Activity relative to atezolizumab (set to 100%)
Description: Experiment 1: Detecting the Inhibitory Activity of Compounds on the PD1/PD-L1 Pathway at the Cellular Level Using the PD1/PD-L1 Blockade Bioassay Method
PD-1 Jukat T cells were revived and cultured with 1640 medium containing 100 μg/mL Hygromycin B, […] Puromycin, 10% FBS and 1% dual antibody; PD-L1 aAPC/CHO-K1 cells were revived and cultured with F12K medium containing 100 μg/mL Hygromycin B, 200 μg/mL G418, 10% FBS and 1% dual antibody.
The revived cells need to be passaged 2-3 times. When the cells enter the exponential growth phase with good growth status, the PD-L1 aAPC/CHO-K1 was digested with trypsin, and the cells were resuspended in F12K containing 5% FBS and adjusted to a density of 5×10^5 cells/mL. 20 μl/well were plated in a 384-well plate (10,000 cells/well) and incubated in an incubator overnight for 16-20 h.
a Preparation of compound stock solution: Dissolve the compound to be tested in DMSO to prepare a 20 mM stock solution.
b Compound gradient dilution: dilute the compound in 1640 medium containing 5% FBS without antibiotics or phenol red, and make 3-fold gradient dilutions to prepare 10 concentration gradients (2×).
c Adding drugs: Take out the cell culture plate, discard the supernatant, add 20 μl/well of the prepared compound, and incubate in the incubator for 1.5 h.
PD-1 Jukat T cells were collected, washed once with PBS, and resuspended in 1640 medium containing 5% FBS without antibiotics or phenol red. The density was adjusted to 1×10^6 cells/mL. 20 μl PD-1 Jukat T cells (20,000 cells/well) were added to each well and incubated in the incubator for 6 h.
ONE-Glo™ Luciferase Assay reagent was thawed to room temperature in advance and then added to a 384-well plate at 40 µl/well. Incubate in the dark for 15 minutes and read the […] signal on a plate reader.
[formula] • Among them, % Activity: % Activity • RLU: Resulting Luminescence unit • RLUvehicle: Average RLU value of negative control wells on each plate • RLUpositive: Average RLU value of positive control wells on each plate • Vehicle control: DMSO (0.1%) corresponding to the test value was used as negative control (its % Activity was 0%); • Positive control: The highest detection value at the atezolizumab administration concentration was used as the positive control (its % Activity was 100%). • (2) EC50 value calculation method: The EC50 value was obtained by the nonlinear fitting formula of Graph Pad Prism 8.0 software. The calculation formula is as follows:
Y=Bottom+(Top−Bottom)/(1+10^((Log EC50−X)×HillSlope)) • X: log of activator concentration (logarithm of compound concentration); Y: % Activity • (3) Emax definition: The maximum % Activity value corresponding to the maximum activation value of the compound relative to atezolizumab (the activation value is set to 100%).

SMILES | EC50 [µM] | Emax [%]
COc1nc(-c2cccc(-c3cccc(Nc4nc(C(F)F)nc5cc(CN6CC[C@@H](O)C6)cnc45)c3C)c2Cl)cnc1CN(C)C[C@H]1CC[C@H](C(=O)O)CC1 [Example 14, (1r,4r)-4-((((5-(2-chloro-3′-((2-(difluoromethyl)-7-(((R)-3-hydroxypyrrolidin-1-yl)methyl)pyrido[3,2-d]pyrimidin-4-yl)amino)-2′-methyl-[1,1′-biphenyl]-3-yl)-3-methoxypyrazin-2-yl)methyl)(methyl)amino)methyl)cyclohexane-1-carboxylic acid] | 0.0313 | 103
COc1nc(-c2cccc(-c3cccc(Nc4nc(C(F)F)nc5cc(CN6CC[C@@H](OC(F)F)C6)cnc45)c3C)c2Cl)cnc1CN(C)[C@H]1CC[C@H](C(=O)O)CC1 [Example 42, (1r,4r)-4-(((5-(2-chloro-3′-((7-(((R)-3-(difluoromethoxy)pyrrolidin-1-yl)methyl)-2-(difluoromethyl)pyrido[3,2-d]pyrimidin-4-yl)amino)-2′-methyl-[1,1′-biphenyl]-3-yl)-3-methoxypyrazin-2-yl)methyl)(methyl)amino)cyclohexane-1-carboxylic acid] | 0.0909 | 74
COc1nc(-c2cccc(-c3cccc(Nc4nc(C(F)F)nc5cc(CN6CC(C)(O)C6)cnc45)c3C)c2Cl)cnc1CN(C)[C@H]1CC[C@H](C(=O)O)CC1 [Example 19, (1r,4r)-4-(((5-(2-chloro-3′-((2-(difluoromethyl)-7-((3-hydroxy-3-methylazetidin-1-yl)methyl)pyrido[3,2-d]pyrimidin-4-yl)amino)-2′-methyl-[1,1′-biphenyl]-3-yl)-3-methoxypyrazin-2-yl)methyl)(methyl)amino)cyclohexane-1-carboxylic acid] | 0.0432 | 80
[2H]C([2H])([2H])N(Cc1ccc(-c2cccc(-c3cccc(Nc4nc(C(F)F)nc5cc(CN6CC[C@@H](O)C6)cnc45)c3C)c2Cl)nc1OC)[C@H]1CC[C@H](C(=O)O)CC1 [Example 13, (1r,4r)-4-(((6-(2-chloro-3′-((2-(difluoromethyl)-7-(((R)-3-hydroxypyrrolidin-1-yl)methyl)pyrido[3,2-d]pyrimidin-4-yl)amino)-2′-methyl-[1,1′-biphenyl]-3-yl)-2-methoxypyridin-3-yl)methyl)(methyl-d3)amino)cyclohexane-1-carboxylic acid] | 0.0382 | 104
COc1nc(-c2cccc(-c3cccc(Nc4nc(C(F)F)nc5cc(CN6CC[C@H](CO)C6)cnc45)c3C)c2Cl)cnc1CN(C)[C@H]1CC[C@H](C(=O)O)CC1 [Example 28, (1r,4r)-4-(((5-(2-chloro-3′-((2-(difluoromethyl)-7-(((S)-3-(hydroxymethyl)pyrrolidin-1-yl)methyl)pyrido[3,2-d]pyrimidin-4-yl)amino)-2′-methyl-[1,1′-biphenyl]-3-yl)-3-methoxypyrazin-2-yl)methyl)(methyl)amino)cyclohexane-1-carboxylic acid] | 0.0495 | 95
COc1nc(-c2cccc(-c3cccc(Nc4nc(C(F)F)nc5cc(CN6CC[C@H](O)C6)cnc45)c3C)c2Cl)cnc1CN[C@@H]1CCOC[C@@H]1O [Example 51, (S)-1-((4-((2′-chloro-3′-(5-((((3R,4R)-3-hydroxytetrahydro-2H-pyran-4-yl)amino)methyl)-6-methoxypyrazin-2-yl)-2-methyl-[1,1′-biphenyl]-3-yl)amino)-2-(difluoromethyl)pyrido[3,2-d]pyrimidin-7-yl)methyl)pyrrolidin-3-ol] | 0.0991 | 96

The remaining compounds from weak to strong by EC50, led by results:

EC50 [µM] | SMILES | Emax [%]
0.0991 | COc1nc(-c2cccc(-c3cccc(Nc4nc(C(F)F)nc5cc(CN6CC[C@H](O)C6)cnc45)c3C)c2Cl)cnc1CN1CC[C@H](O)C1 [Example 50, (S)-1-((5-(2-chloro-3′-((2-(difluoromethyl)-7-(((S)-3-hydroxypyrrolidin-1-yl)methyl)pyrido[3,2-d]pyrimidin-4-yl)amino)-2′-methyl-[1,1′-biphenyl]-3-yl)-3-methoxypyrazin-2-yl)methyl)pyrrolidin-3-ol] | 96
0.0845 | COc1nc(-c2cccc(-c3cccc(Nc4nc(C(F)F)nc5cc(CN6CC[C@H]([C@@H](C)O)C6)cnc45)c3C)c2Cl)cnc1CN(C)[C@H]1CC[C@H](C(=O)O)CC1 [Example 44, (1r,4r)-4-(((5-(2-chloro-3′-((2-(difluoromethyl)-7-(((S)-3-((R)-1-hydroxyethyl)pyrrolidin-1-yl)methyl)pyrido[3,2-d]pyrimidin-4-yl)amino)-2′-methyl-[1,1′-biphenyl]-3-yl)-3-methoxypyrazin-2-yl)methyl)(methyl)amino)cyclohexane-1-carboxylic acid] | 69
0.0763 | [2H]C([2H])([2H])N(Cc1ncc(-c2cccc(-c3cccc(Nc4nc(C(F)F)nc5cc(CN6CC[C@@H](O)C6)cnc45)c3C)c2Cl)nc1OC)[C@H]1CC[C@H](C(=O)O)CC1 [Example 32, (1r,4r)-4-(((5-(2-chloro-3′-((2-(difluoromethyl)-7-(((R)-3-hydroxypyrrolidin-1-yl)methyl)pyrido[3,2-d]pyrimidin-4-yl)amino)-2′-methyl-[1,1′-biphenyl]-3-yl)-3-methoxypyrazin-2-yl)methyl)(methyl-d3)amino)cyclohexane-1-carboxylic acid] | 84.1
0.0711 | COc1nc(-c2cccc(-c3cccc(Nc4nc(C(F)F)nc5cc(CN6CC(OC)C6)cnc45)c3C)c2Cl)cnc1CN(C)[C@H]1CC[C@H](C(=O)O)CC1 [Example 18, (1r,4r)-4-(((5-(2-chloro-3′-((2-(difluoromethyl)-7-((3-methoxyazetidin-1-yl)methyl)pyrido[3,2-d]pyrimidin-4-yl)amino)-2′-methyl-[1,1′-biphenyl]-3-yl)-3-methoxypyrazin-2-yl)methyl)(methyl)amino)cyclohexane-1-carboxylic acid] | 68
0.0635 | COc1nc(-c2cccc(-c3cccc(Nc4nc(C(F)F)nc5cc(CN6CCCC6)cnc45)c3C)c2Cl)cnc1CN(C)[C@H]1CC[C@H](C(=O)O)CC1 [Example 20, (1r,4r)-4-(((5-(2-chloro-3′-((2-(difluoromethyl)-7-(pyrrolidin-1-ylmethyl)pyrido[3,2-d]pyrimidin-4-yl)amino)-2′-methyl-[1,1′-biphenyl]-3-yl)-3-methoxypyrazin-2-yl)methyl)(methyl)amino)cyclohexane-1-carboxylic acid] | 108
0.0586 | COc1nc(-c2cccc(-c3cccc(Nc4nc(C(F)F)nc5cc(CN6CC[C@@H](O)C6)cnc45)c3C)c2Cl)cnc1CN[C@H]1CC[C@H](C(=O)O)CC1 [Example 33, (1r,4r)-4-(((5-(2-chloro-3′-((2-(difluoromethyl)-7-(((R)-3-hydroxypyrrolidin-1-yl)methyl)pyrido[3,2-d]pyrimidin-4-yl)amino)-2′-methyl-[1,1′-biphenyl]-3-yl)-3-methoxypyrazin-2-yl)methyl)amino)cyclohexane-1-carboxylic acid] | 95.3
0.0461 | COc1nc(-c2cccc(-c3cccc(Nc4nc(C(F)F)nc5cc(CN6CC[C@@H](O)C6)cnc45)c3Cl)c2Cl)cnc1CN(C)[C@H]1CC[C@H](C(=O)O)CC1 [Example 35, (1r,4r)-4-(((5-(2,2′-dichloro-3′-((2-(difluoromethyl)-7-(((R)-3-hydroxypyrrolidin-1-yl)methyl)pyrido[3,2-d]pyrimidin-4-yl)amino)-[1,1′-biphenyl]-3-yl)-3-methoxypyrazin-2-yl)methyl)(methyl)amino)cyclohexane-1-carboxylic acid] | 102
0.0281 | COc1nc(-c2cccc(-c3cccc(Nc4nc(C(F)F)nc5cc(CN6CC[C@@H](O)C6)cnc45)c3Cl)c2Cl)ccc1CN(C)[C@H]1CC[C@H](C(=O)O)CC1 [Example 16, (1r,4r)-4-(((6-(2,2′-dichloro-3′-((2-(difluoromethyl)-7-(((R)-3-hydroxypyrrolidin-1-yl)methyl)pyrido[3,2-d]pyrimidin-4-yl)amino)-[1,1′-biphenyl]-3-yl)-2-methoxypyridin-3-yl)methyl)(methyl)amino)cyclohexane-1-carboxylic acid] | 107
